Where “and” joins values, the source holds several entries; their conditions need not be identical. Equal entries are not always repeated. Entries after “also recorded” stand apart in the source; their conditions may differ.
Key:
[1] = system: rhesus monkeys with spontaneous chronic kidney disease; test: Effect on plasma creatinine Cr-P, 8-week administration; format: in vivo, Macaca mulatta (Rhesus Macaque)
Method: In the trial, animals were brought in three stages. […] Glomerular filtration rate […]: creatinine (Cr-P), urea nitrogen (BUN) and cystatin (CysC) were detected, and the eGFR value was obtained by calculation. It was performed once before the administration and once every two weeks after the administration. […] ELISA kit was used for NT-proBNP test. [table]

[2] = system: rhesus monkeys with spontaneous chronic kidney disease; test: Effect on blood pressure (SBP, DBP, MBP, HR) after anesthesia, 8-week administration; format: in vivo, Macaca mulatta (Rhesus Macaque); details: for DBP reduced by on average, compared with the baseline / SBP reduced by on average, compared with the baseline: after W8 administration
From the text: In the trial, animals were brought in three stages.
Route of administration: Oral administration.
After anesthesia, the animal was placed in a supine position. The left upper arm was shaved clean, and a suitable size cuff was tied according to the standard. The blood oxygen probe was clamped on the animal's finger or toe (except for the left hand), and the red light-sensitive surface was on the side of the finger pad. The blood pressure of the animal was continuously measured for 3 times in the automatic mode with an interval of 1 min. If the difference of DBP, SBP and MBP of blood pressure measured more than three times was not significant (the difference between the highest value and the lowest value was less than 15 mmHg), the measurement was completed.
Testing equipment: GE B40i electrophysiological monitor.
See Table 16 for the effects of administration of each administration group on blood pressure. The blood pressure test of primates required anesthesia, so it was necessary to control the variability of heart rate at various time points to make statistics.

[3] = 1 mg/kg qd (n = 5), 4 weeks, mean
[4] = 1 mg/kg qd (n = 5), 8 weeks, mean
[5] = 1 mg/kg qd (n=5), p<0.05 vs placebo
[6] = 2 mg/kg qd (n = 5), 4 weeks, mean
[7] = 2 mg/kg qd (n = 5), 8 weeks, mean
[8] = 2 mg/kg qd (n=5), P<0.01 vs placebo
[9] = 5 mg/kg qd (n = 6), 8 weeks, mean
[10] = 5 mg/kg qd (n=6), p<0.01 vs placebo

COC(=O)NCCCn1nc([C@@H](C)N(C(=O)[C@H]2CNCCO2)C2CC2)c2ccc(C)nc21.O=C(O)C[C@H](O)C(=O)O [malate of compound of Formula I]
Cr-P ([1]; 1 mg/kg (n = 5), Baseline, single animals and Mean ± SD): 1.25 mg/dL and 1.03 mg/dL and 1.09 mg/dL and 1.05 mg/dL and 1.21 mg/dL | Cr-P ([1]; 1 mg/kg (n = 5), Baseline, single animals and Mean ± SD, mean): 1.13 ± 0.10 mg/dL | Cr-P ([1]; 2 mg/kg (n = 5), 2 weeks): 1.1 mg/dL and 1.19 mg/dL and 1.52 mg/dL and 1.54 mg/dL and 1.11 mg/dL | Cr-P ([1]; 2 mg/kg (n = 5), 2 weeks, mean): 1.29 ± 0.22 mg/dL | Cr-P ([1]; 2 mg/kg (n = 5), 4 weeks): 1.15 mg/dL and 1.44 mg/dL and 1.47 mg/dL and 1.26 mg/dL and 1.09 mg/dL | Cr-P ([1]; 2 mg/kg (n = 5), 4 weeks, mean): 1.28 ± 0.17 mg/dL | Cr-P ([1]; 2 mg/kg (n = 5), 6 weeks): 1.17 mg/dL and 1.27 mg/dL and 1.43 mg/dL and 1.34 mg/dL and 1.04 mg/dL | Cr-P ([1]; 2 mg/kg (n = 5), 6 weeks, mean): 1.25 ± 0.15 mg/dL | Cr-P ([1]; 2 mg/kg (n = 5), 8 weeks): 1.17 mg/dL and 1.29 mg/dL and 1.4 mg/dL and 1.3 mg/dL and 1.11 mg/dL | Cr-P ([1]; 2 mg/kg (n = 5), 8 weeks, mean): 1.25 ± 0.11 mg/dL | Cr-P ([1]; 2 mg/kg (n = 5), Baseline, single animals and Mean ± SD): 1.15 mg/dL and 1.14 mg/dL and 1.36 mg/dL and 1.42 mg/dL and 1.06 mg/dL | Cr-P ([1]; 2 mg/kg (n = 5), Baseline, single animals and Mean ± SD, mean): 1.23 ± 0.16 mg/dL | Cr-P ([1]; 5 mg/kg (n = 6), 2 weeks): 0.92 mg/dL and 1.14 mg/dL and 0.88 mg/dL and 1.12 mg/dL and 1.40 mg/dL and 0.96 mg/dL | Cr-P ([1]; 5 mg/kg (n = 6), 2 weeks, mean): 1.07 ± 0.19 mg/dL | Cr-P ([1]; 5 mg/kg (n = 6), 4 weeks): 0.85 mg/dL and 1.26 mg/dL and 0.89 mg/dL and 1.15 mg/dL and 1.13 mg/dL and 1.33 mg/dL | Cr-P ([1]; 5 mg/kg (n = 6), 4 weeks, mean): 1.10 ± 0.19 mg/dL | Cr-P ([1]; 5 mg/kg (n = 6), 6 weeks): 0.87 mg/dL and 1.42 mg/dL and 1.02 mg/dL and 1.06 mg/dL and 1.12 mg/dL and 1.32 mg/dL | Cr-P ([1]; 5 mg/kg (n = 6), 6 weeks, mean): 1.14 ± 0.20 mg/dL | Cr-P ([1]; 5 mg/kg (n = 6), 8 weeks): 0.85 mg/dL and 1.22 mg/dL and 0.95 mg/dL and 1.04 mg/dL and 1.11 mg/dL and 1.18 mg/dL | Cr-P ([1]; 5 mg/kg (n = 6), 8 weeks, mean): 1.06 ± 0.14 mg/dL | Cr-P ([1]; 5 mg/kg (n = 6), Baseline, single animals and Mean ± SD): 0.90 mg/dL and 1.53 mg/dL and 1.10 mg/dL and 0.99 mg/dL and 1.43 mg/dL and 1.79 mg/dL | Cr-P ([1]; 5 mg/kg (n = 6), Baseline, single animals and Mean ± SD, mean): 1.29 ± 0.35 mg/dL | DBP ([2]; 1 mg/kg qd (n = 5), 4 weeks): 51 mmHg and 54 mmHg and 65 mmHg | SBP ([2]; 1 mg/kg qd (n = 5), 4 weeks): 104 mmHg and 109 mmHg and 124 mmHg | DBP [2, 3]: 61 ± 12 mmHg | SBP [2, 3]: 118 ± 17 mmHg | DBP ([2]; 1 mg/kg qd (n = 5), 8 weeks): 53 mmHg and 49 mmHg | SBP ([2]; 1 mg/kg qd (n = 5), 8 weeks): 94 mmHg and 89 mmHg and 114 mmHg | DBP [2, 4]: 60 ± 12 mmHg | SBP [2, 4]: 111 ± 20 mmHg | DBP ([2]; 1 mg/kg qd (n = 5), Baseline): 54 mmHg and 56 mmHg and 60 mmHg and 59 mmHg and 70 mmHg | DBP ([2]; 1 mg/kg qd (n = 5), Baseline, mean): 60 ± 6 mmHg | SBP ([2]; 1 mg/kg qd (n = 5), Baseline, single animals and Mean ± SD): 101 mmHg and 105 mmHg and 125 mmHg and 121 mmHg and 129 mmHg | SBP ([2]; 1 mg/kg qd (n = 5), Baseline, single animals and Mean ± SD, mean): 116 ± 13 mmHg | DBP reduced by on average, compared with the baseline [2, 5]: 5±4 mmHg | SBP reduced by on average, compared with the baseline [2, 5]: 11±4 mmHg | DBP ([2]; 2 mg/kg qd (n = 5), 4 weeks): 55 mmHg and 83 mmHg and 66 mmHg | SBP ([2]; 2 mg/kg qd (n = 5), 4 weeks): 110 mmHg and 163 mmHg and 138 mmHg | DBP [2, 6]: 71 ± 11 mmHg | SBP [2, 6]: 140 ± 20 mmHg | DBP ([2]; 2 mg/kg qd (n = 5), 8 weeks): 52 mmHg and 70 mmHg and 62 mmHg and 73 mmHg | SBP ([2]; 2 mg/kg qd (n = 5), 8 weeks): 102 mmHg and 160 mmHg and 121 mmHg and 133 mmHg | DBP [2, 7]: 64 ± 8 mmHg | SBP [2, 7]: 128 ± 21 mmHg | DBP ([2]; 2 mg/kg qd (n = 5), Baseline): 58 mmHg and 56 mmHg and 78 mmHg and 83 mmHg and 74 mmHg | DBP ([2]; 2 mg/kg qd (n = 5), Baseline, mean): 70 ± 12 mmHg | SBP ([2]; 2 mg/kg qd (n = 5), Baseline, single animals and Mean ± SD): 126 mmHg and 111 mmHg and 184 mmHg and 143 mmHg and 137 mmHg | SBP ([2]; 2 mg/kg qd (n = 5), Baseline, single animals and Mean ± SD, mean): 140 ± 27 mmHg | DBP reduced by on average, compared with the baseline [2, 8]: 9±8 mmHg | SBP reduced by on average, compared with the baseline [2, 8]: 19±9 mmHg | SBP ([2]; 5 mg/kg qd (n = 6), 4 weeks): 136 mmHg and 124 mmHg and 159 mmHg and 144 mmHg and 139 mmHg | SBP ([2]; 5 mg/kg qd (n = 6), 4 weeks, mean): 138 ± 12 mmHg | DBP ([2]; 5 mg/kg qd (n = 6), 8 weeks): 57 mmHg and 97 mmHg and 60 mmHg and 59 mmHg | SBP ([2]; 5 mg/kg qd (n = 6), 8 weeks): 114 mmHg and 161 mmHg and 121 mmHg and 128 mmHg | DBP [2, 9]: 66 ± 15 mmHg | SBP [2, 9]: 129 ± 16 mmHg | DBP ([2]; 5 mg/kg qd (n = 6), Baseline): 63 mmHg and 105 mmHg and 74 mmHg and 97 mmHg and 70 mmHg and 71 mmHg | DBP ([2]; 5 mg/kg qd (n = 6), Baseline, mean): 80 ± 17 mmHg | SBP ([2]; 5 mg/kg qd (n = 6), Baseline, single animals and Mean ± SD): 132 mmHg and 159 mmHg and 127 mmHg and 180 mmHg and 154 mmHg and 149 mmHg | SBP ([2]; 5 mg/kg qd (n = 6), Baseline, single animals and Mean ± SD, mean): 150 ± 19 mmHg | DBP reduced by on average, compared with the baseline [2, 10]: 10±7 mmHg | SBP reduced by on average, compared with the baseline [2, 10]: 21±8 mmHg | activity of lowering blood pressure ([2]; 1-5 mg/kg qd for 8 weeks): showed the activity of lowering the blood pressure; also recorded: the activity of lowering blood pressure was shown
